# In article PMC2199082 (The Journal of Experimental Medicine, 1997):
# No end group written: not given here.
# Assays:
# murine calvaria = assay: Calvarial bone resorption assay; type: cell-based, mouse; settings: for osteolytic activity of peptides in the calvarial assay: graded concentrations, three separate experiments
# [1] = tested on: human osteoblast-like cell line MG63; assay: Osteoblast proliferation; type: cell-based; settings: subconfluent MG63, 24 h, DMEM 2% FCS, [3H]thymidine last 6 h
molecule,measurement,setting,value
"1–58: synthetic Mt cpn10 peptide, residues 1–58 (MAKVNIKPLEDKILVQANEAETTTASGLVIPDTAKEKPQEGTVVAVGPGRWDEDGEKR; also: dimer; UniProt P9WPE5 1-58, looked up, fragment)",osteolytic activity of peptides in the calvarial assay,murine calvaria,inactive
"46–99: synthetic Mt cpn10 peptide, residues 46–99 (VGPGRWDEDGEKRIPLDVAEGDTVIYSKYGGTEIKYNGEEYLILSARDVLAVVS; UniProt P9WPE5 46-99, looked up, fragment)",osteolytic activity of peptides in the calvarial assay,murine calvaria,inactive
"51–99: synthetic Mt cpn10 peptide, residues 51–99 (WDEDGEKRIPLDVAEGDTVIYSKYGGTEIKYNGEEYLILSARDVLAVVS; UniProt P9WPE5 51-99, looked up, fragment)",osteolytic activity of peptides in the calvarial assay,murine calvaria,inactive
"54–99: synthetic Mt cpn10 peptide, residues 54–99 (DGEKRIPLDVAEGDTVIYSKYGGTEIKYNGEEYLILSARDVLAVVS; UniProt P9WPE5 54-99, looked up, fragment)",osteolytic activity of peptides in the calvarial assay,murine calvaria,inactive
"59–99: synthetic Mt cpn10 peptide, residues 59–99 (IPLDVAEGDTVIYSKYGGTEIKYNGEEYLILSARDVLAVVS; UniProt P9WPE5 59-99, looked up, fragment)",osteolytic activity of peptides in the calvarial assay,murine calvaria,inactive
"65–99: synthetic Mt cpn10 peptide, residues 65–99 (EGDTVIYSKYGGTEIKYNGEEYLILSARDVLAVVS; UniProt P9WPE5 65-99, looked up, fragment)",osteolytic activity of peptides in the calvarial assay,murine calvaria,reproducible osteolytic activity
GGIVLTGSAAA [GroES residues 23–33],osteolytic activity of peptides in the calvarial assay,murine calvaria,osteolytic activity
TTTASGLVIPDTAKE [21–35],osteolytic activity of peptides in the calvarial assay,murine calvaria,osteolytic activity
"calcitonin (CGNLSTCMLGTYTQDFNKFHTFPQTAIGVGAP; ends and bridges not checked; cysteine pairing not given here; UniProt P01258 85-116, looked up) [reference compound]",effect on r-Mt cpn10-induced bone resorption,"murine calvaria; calcitonin at 10 ng/ml, results not shown",blocked
"lipoarabinomannan [Mt LAM, reference compound]",osteolytic activity,murine calvaria; added at a concentration of 1 μg/ml,no osteolytic activity
polymyxin B [reference compound],effect of addition on bone resorbing activity of r-Mt cpn10,murine calvaria,no effect
same,effect of addition on bone resorbing activity of the Mt sonicate,murine calvaria,no effect
same,effect on osteolytic activity of peptides 26–99 and 65–99,murine calvaria,no inhibitory effects
"r-Mt cpn10: recombinant Mycobacterium tuberculosis chaperonin 10 expressed in Escherichia coli, purified by reversed-phase HPLC to >97% purity (protein, UniProt P9WPE5 2-100, looked up, recombinant, expressed in E. coli) Co-chaperonin GroES: AKVNIKPLEDKILVQANEAETTTASGLVIPDTAKEKPQEGTVVAVGPGRWDEDGEKRIPLDVAEGDTVIYSKYGGTEIKYNGEEYLILSARDVLAVVSK",cytotoxicity (lactate dehydrogenase release),MG63 cells,not due to cytotoxicity
same,concentrations causing significant inhibition of cell proliferation,[1],≥ 1 nM
same,concentration at which osteolytic activity (calcium release) was noted,murine calvaria,1 ng/mL
same,"concentration at which osteolytic activity was noted, molar equivalent",murine calvaria,100 pmol
same,"stimulation of bone resorption, measured as calcium release into the tissue culture medium",murine calvaria,dose-dependent stimulation of calcium release
